# Assay results: patent US20080312160A1, “METHOD OF TREATING ENTERITIS, […], AND DIARRHEA FROM C. DIFFICILE WITH AN A2A ADENOSINE RECEPTOR AGONIST” (priority 2007, published 2008)
# Columns and labels:
# [1] = system: C. difficile toxin A-induced inflammation and secretion in rabbit ileal loops; assay type: in vivo, New Zealand white rabbits; conditions: rabbit, in vivo
# Procedure: Materials and Methods: New Zealand white rabbits weighing about 2 kg are fasted overnight. Under anesthesia with ketamine (60-80 mg/kg) and xylazine (5-10 mg/kg) administered intramuscularly, a midline abdominal incision is performed to expose the small bowel. After the ileum is flushed, four-cm loops are ligated using double ties with a 1 cm interval between loops. Each of the control loops is injected intraluminally with 1 mL solution of PBS with either C. difficile toxin A (toxin A) (Techlab, Blacksburg, Va.) at 10 μg/mL. Loops from another set of rabbits are treated with the adenosine A2A agonists, JMR 193 (ATL 193) (10 nM, 100 nM, or 1 uM doses) or ATL 146e ([…], 100 nM, 1 uM doses) immediately before the enterotoxin is administered. In addition a rabbit is treated with A2A agonist, ATL 313 (100 nM), alone and another rabbit treated with ATL 313 with alanyl-glutamine (25 mM). After 5 hours of incubation, the ligated small intestinal loops are removed. The length of each ligated ileal segment is measured and intraluminal fluid was quantified. Volume to length ratio, V/L (mL/cm), per loop is calculated. Samples of intestinal stained with hematoxylin-eosin and graded from 0 (none) to 4 (worst) based on the degree of mucosal disruption, increase in cellularity and intensity of vascular congestion.
# [2] = system: murine ileal loops injected with Clostridium difficile toxin A (TxA); assay: TxA-induced enteritis in ligated murine ileal loops: loop weight and secretion volume; assay type: in vivo, mice
# Procedure: For this study, 174 male Swiss mice, 25-30 g body weight, from the animal colony of the Federal University of Ceara were used. The animals received water and food ad libitum.
# (§1) Mice were fasted overnight, but allowed access to water, and then anesthetized with ketamine and xylazine (60 and 5 mg/Kg intramuscularly, respectively). Through a midline laparotomy, one 4-cm ileal loop was ligated and injected with either 0.1 ml of PBS pH 7.4 (control) or buffer containing TxA (1-10 μg). The abdomen was closed, and the animals were allowed to regain consciousness. Three hours after administration of TxA, mice were sacrificed and the intestinal loops were removed. The loop length, weight, and fluid volume were recorded. A portion of the loop was frozen at −70° C. for measurement of myeloperoxidase (MPO) and ADA activities and TNF-α concentration. The remaining tissue was fixed in 10% formalin and embedded in paraffin, and sections were stained with hematoxylin and eosin for histological grading of ileal inflammation. Some mice were injected with ATL 313 ([…] final concentration) immediately followed by PBS or TxA (5 μg); another group was injected with ZM241385 (5 nM), the selective A2A AR antagonist, immediately followed by PBS or ATL 313 (5 nM)+TxA (5 μg) in the ileal loop. In another experiment, TxA (5 μg) was injected into the ileal loop, the abdomen was closed, and, 30 min later, the abdomen was reopened and ATL 313 (5 nM) administered.
# [3] = system: Clostridium difficile toxin A (TxA)-induced histological alterations; assay: Histological grading of ileal inflammation, murine ileal loops; assay type: in vivo, mice
# Procedure: as §1
# The severity of inflammation was scored in coded slides by a pathologist on a scale of 1 (mild) to 3 (severe) for epithelial damage, edema, and neutrophil infiltration.
# [4] = system: Clostridium difficile toxin A-induced TNF-α production; assay: Quantification of TNF-α by ELISA in ileal tissue; assay type: in vivo, mice; conditions: ZM241385 + ATL 313 + TxA
# Procedure: as §1, with “In another experiment, TxA (5 μg) was injected into the ileal loop, the abdomen was closed, and, 30 min later, the abdomen was reopened and ATL 313 (5 nM) administered.” left out
# Ileal tissue was harvested from animals in order to measure TNF-α concentration by enzyme-linked immunosorbent assay (ELISA). The results are expressed as pg/mL of TNF-α.
# [5] = ZM241385 5 nM + ATL 313 5 nM + TxA 5 μg
smiles,measurement,setting,value
"CCNC(=O)C1OC(n2cnc3c(N)nc(C#CCC4CCC(C(=O)OC)CC4)nc32)C(O)C1O (centres unmarked) [ATL 146e, 4-{3-[6-Amino-9-(5-ethylcarbamoyl-3,4-dihydroxy-tetrahydro-furan-2-yl)-9H-purin-2-yl]-prop-2-ynyl}-cyclohexanecarboxylic acid methyl ester]",inflammation induced by toxin A (histology score 0 to 4),[1],reduced
same,toxin A-induced secretion (volume to length ratio),[1],not consistently ameliorated
"CCNC(=O)C1OC(n2cnc3c(N)nc(C#CCC4CCC(COC(C)=O)CC4)nc32)C(O)C1O (centres unmarked) [JMR 193, Acetic acid 4-{3-[6-amino-9-(5-ethylcarbamoyl-3,4-dihydroxy-tetrahydro-furan-2-yl)-9H-purin-2-yl]-prop-2-ynyl}-cyclohexylmethyl ester]",inflammation induced by toxin A (histology score 0 to 4),[1],reduced
same,toxin A-induced secretion (volume to length ratio),[1],not consistently ameliorated
"Nc1nc(NCCc2ccc(O)cc2)nc2nc(-c3ccco3)nn12 [ZM241385, 4-[2-(7-Amino-2-furan-2-yl-[1,2,4]triazolo[1,5-a][1,3,5]triazin-5-ylamino)-ethyl]-phenol, reference compound]",secretion volume/ileal loop length ratio,[2]; [5],significantly reversed the protective effect of ATL 313
same,weight/ileal loop length ratio,[2]; [5],significantly reversed the protective effect of ATL 313
same,secretion volume/ileal loop length,"[2]; ZM241385 alone, no TxA, PBS=1.25±1.25",0.0 ± 0.0 µL/cm
same,weight/ileal loop length,"[2]; ZM241385 alone, no TxA, PBS=34.5±3.2",19.9 ± 0.9 mg/cm
same,median injury score,"[3]; ZM241385 + ATL 313 + TxA, median, range",2.5
same,median injury score,"[3]; compound alone, no TxA, median(range)",0(0-0)
same,TNF-α production in ileal tissue,[4],blocked ATL313 action
